Assay results taken from publication PMC3466212, “Novel AChE Inhibitors for Sustainable Insecticide Resistance Management” (PLoS ONE, 2012).
pIC50: −log10 of the molar value.

Key:
[1] = test system: C. pipiens SR strain larvae; assay: Larval bioassay, SR strain (OP-resistant); conditions: fourth-instar larvae, 24 hours exposure, 300 µM
Description: (§1) Three C. pipiens strains were used: the susceptible reference Slab strain, homozygous for ace-1 ^S [39], the resistant reference SR strain, carrying the genetical background of Slab but homozygous for the G119S mutation, allele ace-1 ^R [21] and the Ducos strain, carrying the genetical background of Slab but homozygous for an ace-1 duplication, with one ace-1^S and ace-1^R copy in tandem. Culex pipiens heterozygous larvae (Slab×SR) were obtained by crossing Slab males and SR females.
(§2) Insecticidal activity was determined by performing bioassays on fourth-instar larvae as described in [42]. Each compound was dissolved in ethanol. Propoxur (CX) and chlorpyrifos (OP) were used as references. For each compound, we first tested mortality after a 24-hour exposure at 300 µM. […] Mortality data were analyzed by the log-probit program.

WT AChE1 = WT AChE1 (Culex pipiens, UniProt Q86GC8); assay: AChE assay (Ellman), dose-response on recombinant WT AChE1; type: biochemical; set-up: made in house; host or cells: Drosophila S2 cells; conditions: recombinant wild-type C. pipiens AChE1; 15 min incubation; acetylthiocholine; read-out: IC50 WT
Experimental: (§3) Production of C. pipiens WT and mutated AChE1s in Drosophila S2 cells was already described. The chemical library (ChemBridge, 3,000 compounds) screening was performed in duplicate on G119S recombinant AChE1. Chemicals were made soluble in ethanol or dimethylsulphoxide (DMSO), and then diluted at 300 µM in ethanol for storage. Compounds (30 µM final concentration) were incubated for 15 min at room temperature with 100 µl of G119S recombinant AChE1 then 100 µl of substrate (acetylthiocholine, 1.6 mM, Sigma-Aldrich) was added and the residual activity was quantified by measuring the optical density at 412 nm, as described by Ellman et al.. PTF analogs were analyzed in dose-response experiments (10-fold serial dilutions from 3 mM to 30 nM), using recombinant WT and G119S AChE1 or mosquito head extracts (heads cut from frozen mosquitoes, homogenized in 400 µl PB containing 1% Triton X-100 and cleared by centrifugation at 9,000×g for 3 min). Depending on compound availability, two to five replicates were performed with distinct batches of enzyme. […] IC50 was estimated by nonlinear least square regression. IC50 was also measured on AChE1 from susceptible and resistant mosquito larvae extracts.

G119S AChE1 = target: T1, G119S AChE1 (Culex pipiens, UniProt Q86GC8, G247S); assay: biochemical; type: biochemical; conditions: for pIC50: recombinant OP-insensitive G119S C. pipiens AChE1, 15 min incubation, acetylthiocholine, read-out: IC50 G119S
T1 construct: made in house; host or cells: Drosophila S2 cells
Experimental: as §3, with “Compounds (30 µM final concentration) were incubated for 15 min at room temperature with 100 µl of G119S recombinant AChE1 then 100 µl of substrate (acetylthiocholine, 1.6 mM, Sigma-Aldrich) was added and the residual activity was quantified by measuring the optical density at 412 nm, as described by Ellman et al..” left out

[2] = test system: C. pipiens Slab strain larvae; assay: Larval bioassay, Slab strain (OP-susceptible); conditions: fourth-instar larvae, 24 hours exposure, 300 µM
Description: as §1, with “females. Two A. gambiae reference strains (S molecular form) were used: the susceptible strain Kisumu, homozygous for ace-1 ^S, collected in Kenya in 1953 and maintained since then under laboratory conditions and the resistant Acerkis strain, carrying the genetical background of Kisumu but homozygous for an ace-1^R allele from a population collected in Bobo-Dioulasso, Burkina Faso [41].” for “females.”
as §2, with “program. This program takes into account natural mortality and provides lethal doses (LD) and slopes for each mortality line; it also computes resistance ratios (RR) for each LD, with 95% confidence intervals.” for “program.”

SMILES: CCN(CC)c1ccc(C=C2C(=O)N(C)C(=O)N(C)C2=O)o1 [PTF-42]
- Mortality at 300 µM, SR [1]: 0%
- pIC50 (WT AChE1): 3.14
- pIC50 (G119S AChE1): 2.99
- Mortality at 300 µM, Slab [2]: 0%

SMILES: Cc1ccc(C=C2C(=O)NC(=S)N(CCc3ccc(F)cc3)C2=O)o1 [PTF-34]
- Mortality at 300 µM, SR [1]: 0%
- pIC50 (WT AChE1): 4.62
- pIC50 (G119S AChE1): 4.42
- Mortality at 300 µM, Slab [2]: 0%

SMILES: CN1C(=O)C(=Cc2ccco2)C(=O)N(C)C1=O [PTF-38]
- Mortality at 300 µM, SR [1]: 90%
- pIC50 (WT AChE1): 2.92
- pIC50 (G119S AChE1): 3.45
- Mortality at 300 µM, Slab [2]: 70%

SMILES: Cc1ccc(C=C2C(=O)NC(=O)N(c3ccc(F)cc3)C2=O)o1 [PTF-17]
- Mortality at 300 µM, SR [1]: 90%
- pIC50 (WT AChE1): 5.30
- pIC50 (G119S AChE1): 5.10
- Mortality at 300 µM, Slab [2]: 15%

SMILES: O=C1NC(=O)N(c2ccccc2)C(=O)C1=Cc1ccc(Sc2ccccc2)o1 [PTF-60]
- Mortality at 300 µM, SR [1]: 50%
- pIC50 (WT AChE1): 5.11
- pIC50 (G119S AChE1): 5.96
- Mortality at 300 µM, Slab [2]: 50%

SMILES: COc1cccc(N2C(=O)NC(=O)C(=Cc3ccc(C)o3)C2=O)c1 [PTF-12]
- Mortality at 300 µM, SR [1]: 88%
- pIC50 (WT AChE1): 4.27
- pIC50 (G119S AChE1): 5.22
- Mortality at 300 µM, Slab [2]: 46%

SMILES: Cc1cccc(N2C(=O)NC(=O)C(=Cc3ccc(C)o3)C2=O)c1 [PTF-6]
- Mortality at 300 µM, SR [1]: 0%
- pIC50 (WT AChE1): 5.40
- pIC50 (G119S AChE1): 5.36
- Mortality at 300 µM, Slab [2]: 0%

SMILES: O=C1NC(=O)N(c2ccccc2)C(=O)C1=Cc1ccc(-c2ccccc2C(=O)O)o1 [PTF-59]
- Mortality at 300 µM, SR [1]: 0%
- pIC50 (WT AChE1): 4.34
- pIC50 (G119S AChE1): 4.73
- Mortality at 300 µM, Slab [2]: 0%

SMILES: COc1ccccc1N1C(=O)NC(=O)C(=Cc2ccc(C)o2)C1=O [PTF-11]
- Mortality at 300 µM, SR [1]: 0%
- pIC50 (WT AChE1): 5.89
- pIC50 (G119S AChE1): 6.00
- Mortality at 300 µM, Slab [2]: 0%

SMILES: O=C1NC(=O)N(c2ccccc2)C(=O)C1=Cc1cccs1 [PTF-67]
- Mortality at 300 µM, SR [1]: 0%
- pIC50 (WT AChE1): 5.04
- pIC50 (G119S AChE1): 4.95
- Mortality at 300 µM, Slab [2]: 0%

SMILES: CCCCN1C(=O)C(=Cc2ccc(C)o2)C(=O)NC1=S [PTF-23]
- Mortality at 300 µM, SR [1]: 60%
- pIC50 (WT AChE1): 4.92
- pIC50 (G119S AChE1): 4.81
- Mortality at 300 µM, Slab [2]: 24%

SMILES: O=C1NC(=O)N(c2ccccc2)C(=O)C1=Cc1ccc(-c2ccc(C(=O)O)cc2)o1 [PTF-57]
- Mortality at 300 µM, SR [1]: 0%
- pIC50 (WT AChE1): 4.95
- pIC50 (G119S AChE1): 5.27
- Mortality at 300 µM, Slab [2]: 0%

SMILES: O=C1NC(=O)N(c2ccccc2)C(=O)C1=Cc1ccc(Br)o1 [PTF-55]
- Mortality at 300 µM, SR [1]: 0%
- pIC50 (WT AChE1): 4.77
- pIC50 (G119S AChE1): 4.49
- Mortality at 300 µM, Slab [2]: 0%

SMILES: Cc1ccc(C=C2C(=O)NC(=O)N(c3ccc(C(=O)O)cc3)C2=O)o1 [PTF-15]
- Mortality at 300 µM, SR [1]: 0%
- pIC50 (WT AChE1): 5.05
- pIC50 (G119S AChE1): 4.89
- Mortality at 300 µM, Slab [2]: 0%

SMILES: O=C1NC(=S)N(c2ccccc2)C(=O)C1=Cc1ccco1 [PTF-63]
- Mortality at 300 µM, SR [1]: 0%
- pIC50 (WT AChE1): 3.82
- pIC50 (G119S AChE1): 4.01
- Mortality at 300 µM, Slab [2]: 0%

SMILES: CCOC(=O)c1ccc(-c2ccc(C=C3C(=O)NC(=O)N(c4ccccc4)C3=O)o2)cc1 [PTF-56]
- Mortality at 300 µM, SR [1]: 0%
- pIC50 (WT AChE1): 5.31
- pIC50 (G119S AChE1): 5.72
- Mortality at 300 µM, Slab [2]: 0%

SMILES: CN1C(=O)C(=Cc2ccc(Sc3ccccc3)o2)C(=O)N(C)C1=O [PTF-47]
- Mortality at 300 µM, SR [1]: 0%
- pIC50 (WT AChE1): 5.52
- pIC50 (G119S AChE1): 5.89
- Mortality at 300 µM, Slab [2]: 0%

SMILES: COc1ccc(OC)c(N2C(=O)NC(=O)C(=Cc3ccc(C)o3)C2=O)c1 [PTF-14]
- Mortality at 300 µM, SR [1]: 0%
- pIC50 (WT AChE1): 5.70
- pIC50 (G119S AChE1): 5.70
- Mortality at 300 µM, Slab [2]: 0%

SMILES: COc1ccc(N2C(=O)C(=Cc3ccc(C)o3)C(=O)NC2=S)c(OC)c1 [PTF-30]
- Mortality at 300 µM, SR [1]: 25%
- pIC50 (WT AChE1): 5.55
- pIC50 (G119S AChE1): 5.89
- Mortality at 300 µM, Slab [2]: 25%

SMILES: O=C1NC(=O)N(c2ccccc2)C(=O)C1=Cc1ccc(N2CCCCC2)o1 [PTF-61]
- Mortality at 300 µM, SR [1]: 0%
- pIC50 (WT AChE1): 3.90
- pIC50 (G119S AChE1): 2.82
- Mortality at 300 µM, Slab [2]: 0%

SMILES: O=C1NC(=O)N(c2ccccc2)C(=O)C1=Cc1ccc(N2CCOCC2)o1 [PTF-62]
- Mortality at 300 µM, SR [1]: 0%
- pIC50 (WT AChE1): 3.71
- pIC50 (G119S AChE1): 3.46
- Mortality at 300 µM, Slab [2]: 0%

SMILES: CN1C(=O)C(=Cc2ccc(N3CCCCC3)o2)C(=O)N(C)C1=O [PTF-49]
- Mortality at 300 µM, SR [1]: 0%
- pIC50 (WT AChE1): 4.01
- pIC50 (G119S AChE1): 4.18
- Mortality at 300 µM, Slab [2]: 13%

SMILES: CN1C(=O)C(=Cc2ccc([N+](=O)[O-])o2)C(=O)N(C)C1=O [PTF-40]
- Mortality at 300 µM, SR [1]: 0%
- pIC50 (WT AChE1): 4.08
- pIC50 (G119S AChE1): 4.26
- Mortality at 300 µM, Slab [2]: 0%

SMILES: Cc1ccc(C=C2C(=O)NC(=S)N(c3ccc(Br)cc3)C2=O)o1 [PTF-37]
- Mortality at 300 µM, SR [1]: 35%
- pIC50 (WT AChE1): 2.67
- pIC50 (G119S AChE1): 3.85
- Mortality at 300 µM, Slab [2]: 0%

SMILES: CC(C)(C)N=C1NC(=O)C(=Cc2ccco2)C(=O)N1c1ccccc1 [PTF-65]
- Mortality at 300 µM, SR [1]: 0%
- pIC50 (WT AChE1): 4.43
- pIC50 (G119S AChE1): 4.66
- Mortality at 300 µM, Slab [2]: 0%

SMILES: Cc1ccc(C=C2C(=O)NC(=S)N(c3ccc(C(=O)O)cc3)C2=O)o1 [PTF-31]
- Mortality at 300 µM, SR [1]: 20%
- pIC50 (WT AChE1): 6.30
- pIC50 (G119S AChE1): 6.70
- Mortality at 300 µM, Slab [2]: 20%

SMILES: Cc1ccc(C=C2C(=O)NC(=O)N(Cc3ccco3)C2=O)o1 [PTF-16]
- Mortality at 300 µM, SR [1]: 100%
- pIC50 (WT AChE1): 3.59
- pIC50 (G119S AChE1): 4.43
- Mortality at 300 µM, Slab [2]: 80%

SMILES: O=C1NC(=O)N(c2ccccc2)C(=O)C1=Cc1ccc(-c2cccc(C(=O)O)c2)s1 [PTF-69]
- Mortality at 300 µM, SR [1]: 0%
- pIC50 (WT AChE1): 4.36
- pIC50 (G119S AChE1): 5.34
- Mortality at 300 µM, Slab [2]: 0%

SMILES: Cc1ccc(N2C(=O)C(=Cc3ccc(C)o3)C(=O)NC2=S)cc1 [PTF-24]
- Mortality at 300 µM, SR [1]: 0%
- pIC50 (WT AChE1): 5.89
- inhibition in primary screen (hydrolysis of acetylthiocholine) (G119S AChE1; 30 µM final concentration, duplicate, G119S recombinant AChE1): 80–87%
- pIC50 (G119S AChE1): 5.72
- Mortality at 300 µM, Slab [2]: 0%

SMILES: Cc1ccc(N2C(=O)NC(=O)C(=Cc3ccc(C)o3)C2=O)cc1 [PTF-4]
- Mortality at 300 µM, SR [1]: 100%
- pIC50 (WT AChE1): 3.95
- pIC50 (G119S AChE1): 4.85
- Mortality at 300 µM, Slab [2]: 78%

SMILES: O=C1NC(=O)N(c2ccccc2)C(=O)C1=Cc1ccco1 [PTF-54]
- Mortality at 300 µM, SR [1]: 100%
- pIC50 (WT AChE1): 2.86
- pIC50 (G119S AChE1): 3.13
- Mortality at 300 µM, Slab [2]: 100%

SMILES: COc1ccccc1N1C(=O)C(=Cc2ccc(C)o2)C(=O)NC1=S [PTF-28]
- Mortality at 300 µM, SR [1]: 0%
- pIC50 (WT AChE1): 5.68
- pIC50 (G119S AChE1): 5.74
- Mortality at 300 µM, Slab [2]: 0%

SMILES: Cc1ccc(C=C2C(=O)NC(=S)N(CC3CCCO3)C2=O)o1 (stereo not shown) [PTF-32]
- Mortality at 300 µM, SR [1]: 0%
- pIC50 (WT AChE1): 5.68
- pIC50 (G119S AChE1): 5.64
- Mortality at 300 µM, Slab [2]: 0%
